Source: patent US20140120598A1 (priority 2011, published 2014)
Where two headings read alike, the source gives them in different places.

Key:
[1] = tested on: ΔPHO13 strain (S. cerevisiae BY4741X with PHO13 deleted); format: cell-based; conditions: for amount of production of ethanol: 80 g/L xylose
Excerpt: (§1) A solution obtained by incorporating 80 g/L of xylose into a YP medium (containing 1% of a yeast extract, 2% of peptone, and 0.5% of […]) was used as a material using xylose as a carbon source. […]

S. cerevisiae MN8140X = conditions: 100 mM of acetic acid
Excerpt: A medium formed of 10 g/L of a yeast extract, 20 g/L of polypeptone, 80 g/L of glucose, and 60 g/L of xylose was used as the solution using glucose and xylose as carbon sources.

BY4741X strain (control) = assay: Fermentation with xylose as carbon source by the control strain in the presence of a fermentation inhibitor; format: cell-based, S. cerevisiae; conditions: 72 hours
Excerpt: as §1

[2] = 60 mM of acetic acid, after 24 hours
[3] = 60 mM of acetic acid, after 72 hours
[4] = 30 mM of formic acid, after 24 hours
[5] = 30 mM of formic acid, after 72 hours
[6] = 60 mM of furfural versus no furfural, 72 hours
[7] = 90 mM of furfural, after 24 hours
[8] = 90 mM of furfural, after 72 hours

For `CC(=O)O` [acetic acid], the “resistance of the strain to the fermentation inhibitor in ethanol production using xylose as a carbon source” value [1] was “resistant”, the “amount of production of ethanol relative to control (BY4741X strain)” value [1, 2] was 2.3 times and the “amount of production of ethanol” value [1, 2] was 13 g/L. For the same molecule, the “amount of production of ethanol relative to control (BY4741X strain)” value [1, 3] was 1.4 times, the “amount of production of ethanol” value [1, 3] was 20 g/L and the “consumption rate of xylose” value ([1]; acetic acid 0, 30 and 60 mM, 72 hours) was “reduced depending on an acetic acid concentration”. The “action in ethanol production by the yeast” value (S. cerevisiae MN8140X) was “showed a fermentation inhibitory action”, the “amount of production of ethanol” value (S. cerevisiae MN8140X; fermentation 48 hours, 30° C.) was “also suppressed” and the “consumption of glucose as a carbon source” value (S. cerevisiae MN8140X; fermentation 48 hours, 30° C.) was “suppressed”. For the same molecule, the “consumption rate of xylose” value (BY4741X strain (control); acetic acid 0, 30 and 60 mM) was “reduced depending on an acetic acid concentration”.
With `O=CO` [formic acid] the “resistance of the strain to the fermentation inhibitor in ethanol production using xylose as a carbon source” value [1] was “resistant”, the “amount of production of ethanol relative to control (BY4741X strain)” value [1, 4] was 4.1 times and the “amount of production of ethanol” value [1, 4] was 6 g/L. For the same molecule, the “amount of production of ethanol relative to control (BY4741X strain)” value [1, 5] was 5.5 times, the “amount of production of ethanol” value [1, 5] was 11 g/L and the “xylose consumption and ethanol production versus inhibitor concentration” value ([1]; formic acid 0, 15 and 30 mM, 72 hours) was “a tendency similar to that in the case of acetic acid was observed”.
With `O=Cc1ccco1` [furfural] the “resistance of the strain to the fermentation inhibitor in ethanol production using xylose as a carbon source” value [1] was “resistant”, the “consumption rate of xylose” value [1, 6] was “substantially the same as that in the case where furfural was not incorporated” and the ethanol-producing ability [1, 6] was “effective ethanol production was similarly observed”. For the same molecule, the “amount of production of ethanol relative to control (BY4741X strain)” value [1, 7] was 27.5 times, the “amount of production of ethanol” value [1, 7] was 21 g/L and the “amount of production of ethanol relative to control (BY4741X strain)” value [1, 8] was 5.5 times. For the same molecule, the “amount of production of ethanol” value [1, 8] was 31 g/L and the “consumption rate of xylose” value (BY4741X strain (control); furfural 60 and 90 mM versus 0 mM) was “reduced”.
